The values below come from the Deep4Chem optical property database.

Each structure is given as a SMILES string.

This data set is described as follows: solvent given as SMILES.

For `COc1nnc(Cl)nn1`, the absorption maximum runs as follows: (in ClCCl) 520 nm; (in OCC(F)(F)F) 518 nm.
Turning to `COc1cc2c(cc1/C=C(\C#N)c1nc3ccccc3s1)c1ccccc1n2C`, the absorption maximum by setting is: (in C1CCOC1) 433 nm; (in CC#N) 431 nm; (in CCOC(C)=O) 430 nm; (in CN(C)C=O) 439 nm; (in CO) 437 nm; (in CS(C)=O) 443 nm. Also, the absorption maximum by setting is: (in Cc1ccccc1) 431 nm; (in ClC(Cl)Cl) 434 nm; (in ClCCl) 435 nm.
Turning to `CCCCCCc1ccsc1-c1ccc(-c2sc(C(=O)O)cc2CCCCCC)s1`, the absorption maximum (in CC(C)=O) is on record as 361 nm; the absorption maximum (in CCCCCC) worked out at 357 nm; the absorption maximum (in CCO) worked out at 352 nm; the absorption maximum (in CO) was found to be 352 nm; the absorption maximum (in ClCCl) stood at 364 nm; the absorption maximum (in O) is given as 365 nm.
`c1ccc2c(c1)-c1ccccc1C21c2ccccc2-c2cccnc21` returned an absorption maximum (in CC1CCCO1) of 313 nm.
For the compound `Cc1ccc(C(=O)/N=c2\oc3cccc4c5c(-c6ccccc6)oc6cccc(c(c2-c2ccccc2)c34)c65)cc1`, under “in ClC(Cl)Cl”, the absorption maximum turned out to be 385 nm.
For the setting “in CS(C)=O”, `c1cnc2c(c1)c1nc(-c3ccc(-c4nc5c6cccnc6c6ncccc6c5[nH]4)cc3)[nH]c1c1cccnc12` returned an absorption maximum of 398 nm.
`CCN(CC)c1ccc2n1[B-](F)(F)[N+]1=CC(/C=C/C(=O)OC(C)(C)C)=CC1=C2c1c(C)cc(C)cc1C` had an absorption maximum (in ClCCl) of 478 nm.
`Cc1ccc2c3ccc(C)cc3c3cc4c(C)cc(=O)oc4cc3c2c1` showed an absorption maximum (in ClC(Cl)Cl) of 386 nm.
Where the note is “in ClCCl”, `CCCCCCCCCCCCCCCCCCOC(=O)/C=C/C1=CC2=C(c3c(C)cc(C)cc3C)c3cccn3[B-](F)(F)[N+]2=C1` yielded an absorption maximum of 538 nm.
Consider `C(=C\c1c2ccccc2cc2ccccc12)/c1cnc2ccccc2c1`, for which the absorption maximum (in CC1CCCCC1) came to 386 nm and the absorption maximum (in CC#N) amounted to 386 nm.
For the setting “in Cc1ccccc1”, `COc1ccccc1-c1nc2c3ccccc3c3ccccc3c2n1-c1ccc(C)cc1` returned an absorption maximum of 359 nm.
On to `N#Cc1cc(-c2ccc(/C=C/c3ccc(N(c4ccccc4)c4ccccc4)cc3)c(C#N)c2)ccc1/C=C/c1ccc(N(c2ccccc2)c2ccccc2)cc1`, for which the absorption maximum (in ClCCl) is 428 nm.
With `CC1(C)c2ccccc2N(c2c(F)cc(-c3nnc(-c4ccccc4)o3)cc2F)c2ccccc21`, the absorption maximum by setting is: (in Cc1ccccc1) 376 nm; (in O=P(c1ccccc1)(c1ccccc1)c1ccccc1Oc1ccccc1P(=O)(c1ccccc1)c1ccccc1) 370 nm.
For the setting “in ClC(Cl)Cl”, `CCOC(=O)/C=C/C1=C(c2ccc(C)cc2)C2=Nc3c(-c4ccc(C)cc4)c(Br)c(-c4ccc(C)cc4)n3[B-](F)(F)[N+]2=C1c1ccc(C)cc1` came in with an absorption maximum of 666 nm.
For `O=C(O)c1cc(O)c(O)c(O)c1`, under “in O”, the absorption maximum turned out to be 258 nm.
As for `CCOC(=O)C1=CN(c2ccccc2)C=C(C(=O)OCC)C1`, the absorption maximum came to 376 nm (in C1CCOC1) and 380 nm (in CO).
Take `CC(=O)C1=C(O)CC2Oc3c(C(C)=O)c(O)c(C)c(O)c3C2(C)C1=O` (stereo not given): the absorption maximum (in ClC(Cl)Cl) stood at 340 nm.
With `COc1ccc(C2=CC(c3ccccc3)=[N+]3C2=Nc2c(-c4ccc(OC)cc4)cc(-c4ccccc4)n2[B-]3(F)F)cc1`, the absorption maximum is, setting by setting: (in Cc1ccccc1) 663 nm; (in ClC(Cl)Cl) 664 nm.
`Cc1ccc2c(nc3c(=O)n(C)c(=O)nc-3n2C)c1C` had an absorption maximum (in CC#N) of 448 nm.
`CC1(C)c2ccccc2-c2ccc(N3c4ccc(-c5ccc(/C=C6\C(=O)c7ccc(C(=O)O)cc7C6=O)s5)cc4C4CCCC43)cc21` (stereo not given): the absorption maximum (in ClC(Cl)Cl) amounted to 608 nm.
For the compound `CC(=O)O[B-]1(OC(C)=O)OC(/C=C/c2ccccc2)=CC(/C=C/c2ccccc2)=[O+]1`, the absorption maximum runs as follows: (in C1CCOC1) 422 nm; (in CC#N) 422 nm; (in CC(C)=O) 422 nm; (in CS(C)=O) 428 nm; (in Cc1ccccc1) 424 nm; (in ClC(Cl)Cl) 426 nm. Further, where the note is “in ClCCl”, the absorption maximum is reported as 424 nm.
As for `Cc1ccc2c(c1)C1(c3ccccc3-c3ccccc31)c1cc(C)ccc1N2c1ccc2c(c1)Oc1ccccc1P2(=O)c1ccccc1` (stereo not given), the absorption maximum (in Cc1ccccc1) is given as 311.25 nm.
As for `CC1(C)CC(/C=C/c2ccc(-n3cccn3)cc2)=CC(=C(C#N)C#N)C1`, the absorption maximum was 405 nm (in C1CCOC1); 397 nm (in CC#N); 404 nm (in CCO); 403 nm (in CCOC(C)=O); 404 nm (in ClCCl); 407 nm (in c1ccccc1).
Consider `COc1ccc2c(c1)c1cc(OC)ccc1n2-c1cccc(-n2c3ccc(OC)cc3c3cc(OC)ccc32)c1C#N`, for which the absorption maximum (in Cc1ccccc1) worked out at 391 nm.
`C[Si]1(C)C(c2ccccc2)=Cc2ccccc21` had an absorption maximum (in ClCCl) of 333 nm.
`COC(=O)C(CCCCNC(=O)CCNc1cccc2ccccc12)NC(C)=O` (stereo not given) returned an absorption maximum (in CCO) of 330 nm.
On to `O=C1c2cccc3cc(C#CC#Cc4cc5c6c(cccc6c4)C(=O)N(c4ccccc4)C5=O)cc(c23)C(=O)N1c1ccccc1`, for which the absorption maximum (in ClCCl) is 326 nm.
In the case of `COc1nc(Nc2ccc3cc4ccccc4cc3c2)nc(OC)n1`, the absorption maximum is, setting by setting: (in C1COCCO1) 394 nm; (in CC#N) 395 nm; (in CCCCOCCCC) 398 nm; (in CCOC(C)=O) 395 nm.
Take `O=P1(c2ccccc2)C2=C(c3ccccc31)S(=O)(=O)c1ccccc12` (stereo not given): the absorption maximum (in C1CCCCC1) came out at 380 nm, the absorption maximum (in CC#N) is 383 nm, the absorption maximum (in CCO) turned out to be 386 nm and the absorption maximum (in ClCCl) was found to be 386 nm.
The compound `O=c1c2cc(S(=O)(=O)Cl)ccc2[nH]c2ccc(S(=O)(=O)Cl)cc12` showed an absorption maximum (in CS(C)=O) of 399 nm.
Consider `COc1ccc2cc(/C=C/c3nc(/C=C/c4ccc(N(c5ccccc5)c5ccccc5)cc4)cc(/C=C/c4ccc(N(c5ccccc5)c5ccccc5)cc4)n3)ccc2c1`, for which, for the setting “in ClCCl”, the absorption maximum came out at 424 nm.
Turning to `O=C(O)CCCCCn1c2ccccc2c(=O)c2cc(F)ccc21`, the absorption maximum (in O) came out at 420 nm.
`CC(C)(C)c1ccc2c(c1)c1cc(C(C)(C)C)ccc1n2-c1cc(N2c3ccccc3C(c3ccccc3)(c3ccccc3)c3ccccc32)cc(-n2c3ccc(C(C)(C)C)cc3c3cc(C(C)(C)C)ccc32)c1C#N` yielded an absorption maximum (in Cc1ccccc1) of 378 nm.
In turn, `O=[N+]([O-])c1ccc(NCCN(Cc2c3ccccc3cc3ccccc23)c2ccc([N+](=O)[O-])cc2[N+](=O)[O-])c([N+](=O)[O-])c1` came in with an absorption maximum (in C1CCCCC1) of 355 nm; an absorption maximum (in C1CCOC1) of 372 nm; an absorption maximum (in CC#N) of 371 nm; an absorption maximum (in CC(C)=O) of 371 nm; an absorption maximum (in CCO) of 368 nm; an absorption maximum (in CN(C)C=O) of 267 nm. In addition, the absorption maximum by setting is: (in CO) 369 nm; (in ClC(Cl)Cl) 355 nm.
As to `CN(C)c1ccc(/C=C/c2cccnn2)cc1`, the absorption maximum runs as follows: (in C1CCOC1) 369 nm; (in CC#N) 369 nm; (in CS(C)=O) 380 nm; (in ClCCl) 365 nm.
